From the supplement of paper PMC12137928
Counter-ions that a name gives are not always drawn.

Key:
[1] = tested on: HCT116; conditions: 72 h
Method in brief: (§1)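 After seeding at 250 cells per well in 1536-well plates, HCT116 cells were given 5 h to attach. CellTiter-Glo luminescence, scaled to 0% for vehicle and -100% for positive control, was pattern-corrected. Fitting with a four-parameter Hill model produced IC50 and maximal efficacy.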

[2] = tested on: HCT116; assay: efficacy (maximum % inhibition of viability vs DMSO); higher = more cytotoxic; conditions: 72 h
Method in brief: as §1

IC50 cell viability ([1]; ICRF193 0 nM) [µM]	IC50 cell viability ([1]; ICRF193 200 nM) [µM]	SMILES	efficacy ([2]; ICRF193 0 nM) [%]	efficacy ([2]; ICRF193 200 nM) [%]
0.231	0.231	C[C@H]1O[C@@H](O[C@H]2CC[C@@]3(C)[C@H](CC[C@@H]4[C@@H]3C[C@@H](O)[C@]3(C)[C@@H](C5=CC(=O)OC5)CC[C@]43O)C2)C[C@H](O)[C@@H]1O[C@H]1C[C@H](O)[C@H](O[C@H]2C[C@H](O)[C@H](O[C@@H]3O[C@H](CO)[C@@H](O)[C@H](O)[C@H]3O)[C@@H](C)O2)[C@@H](C)O1 [Deslanoside]	85.6	78.1
7.3	16.4	CN(C)/N=N/c1[nH]cnc1C(N)=O [Dacarbazine]	66.6	91.9
0.73	> 45.8	CC[C@]12C=CCN3CC[C@@]4(c5cc([C@@]6(C(=O)OC)C[C@@H]7C[C@@H](C(C)(F)F)CN(Cc8c6[nH]c6ccccc86)C7)c(OC)cc5N(C)[C@H]4[C@@](O)(C(=O)OC)[C@@H]1OC(C)=O)[C@@H]32 [Vinflunine (Tartrate)]	60.1	–
> 45.8	7.99	COc1cc2nc(N3CCN(C(=O)c4ccco4)CC3)nc(N)c2cc1OC [Prazosin]	–	42.5
2.59	2.59	CC(=O)OC[C@H]1O[C@@H]([S-])[C@H](OC(C)=O)[C@@H](OC(C)=O)[C@@H]1OC(C)=O.CCP(CC)CC.[Au+] [Auranofin]	102	96.8
> 45.8	10.3	COC(=O)c1ccc2c(c1)NC(=O)/C2=C(\Nc1ccc(N(C)C(=O)CN2CCN(C)CC2)cc1)c1ccccc1 [Nintedanib]	–	53.6
> 45.8	18.3	CN(C)CCC=C1c2ccccc2CCc2ccccc21 [Amitriptyline hydrochloride]	–	51.6
0.206	0.146	N=c1ccn2c(n1)O[C@H]1[C@H](O)[C@@H](CO)O[C@H]12 [ANCITABINE HYDROCHLORIDE]	58.5	56.7
> 45.8	23.1	C/C=C(/C)C(=O)O[C@H]1C(C)=C[C@]23C(=O)[C@@H](C=C(CO)[C@@H](O)[C@]12O)[C@H]1[C@@H](C[C@H]3C)C1(C)C [Ingenol mebutate]	–	60.3
29.1	29.1	COC(=O)N[C@H](C(=O)N1CCC[C@H]1c1ncc(-c2ccc(-c3ccc(-c4cnc([C@@H]5CCCN5C(=O)[C@@H](NC(=O)OC)C(C)C)[nH]4)cc3)cc2)[nH]1)C(C)C [Daclatasvir dihydrochloride]	103	101
10.3	8.2	CCCCCCNC(=O)n1cc(F)c(=O)[nH]c1=O [Carmofur]	87.1	92
> 45.8	20.6	CCCCC(=O)O[C@H]1CC[C@H]2[C@@H]3CCc4cc(O)ccc4[C@H]3CC[C@]12C [Estradiol valerate]	–	49.3
14.6	13	CC(C)(C)C(=O)OCOP(=O)(COCCn1cnc2c(N)ncnc21)OCOC(=O)C(C)(C)C [Adefovir dipivoxil]	63.1	79.3
29.1	> 45.8	C[C@@H]1C[C@H]2[C@@H]3C[C@H](F)C4=CC(=O)C=C[C@]4(C)[C@@]3(F)[C@@H](O)C[C@]2(C)[C@@]1(OC(=O)c1ccco1)C(=O)SCF [Fluticasone furoate]	83.8	–
11.6	9.2	O=C1CCc2ccc(OCCCCN3CCN(c4cccc(Cl)c4Cl)CC3)cc2N1 [Aripiprazole]	52.1	59.1
6.51	> 45.8	CCOc1ccc(Cc2nccc3cc(OCC)c(OCC)cc23)cc1OCC [Ethaverine hydrochloride]	61.3	–
29.1	16.4	CC(=O)c1c(C)c2cnc(Nc3ccc(N4CCNCC4)cn3)nc2n(C2CCCC2)c1=O [Palbociclib]	98.3	104
18.3	20.6	O=C(c1ccc(OCCN2CCCCC2)cc1)c1c(-c2ccc(O)cc2)sc2cc(O)ccc12 [Raloxifene hydrochloride]	98.1	88.8
20.6	16.4	COC(=O)C1=C(C)NC(C)=C(C(=O)OC(C)(C)CN(C)CCC(c2ccccc2)c2ccccc2)C1c1cccc([N+](=O)[O-])c1 (stereo not given) [Lercanidipine hydrochloride]	102	89.3
13	23.1	CC(C)OC(=O)Nc1ccc2[nH]c(-c3cscn3)nc2c1 [Cambendazole]	63	97.2
20.6	14.6	CCCC(=O)O[C@]1(C(=O)CCl)[C@H](C)C[C@@H]2[C@@H]3CCC4=CC(=O)C=C[C@]4(C)[C@]3(F)C(=O)C[C@@]21C [Clobetasone butyrate]	50.4	40.9
0.13	0.103	CC(C)C[C@H](NC(=O)CNC(=O)c1cc(Cl)ccc1Cl)B1OC(=O)C(CC(=O)O)(CC(=O)O)O1 [MLN9708]	96.2	94.4
> 45.8	20.6	CC(C)c1nc(CN(C)C(=O)N[C@H](C(=O)N[C@@H](Cc2ccccc2)C[C@H](O)[C@H](Cc2ccccc2)NC(=O)OCc2cncs2)C(C)C)cs1 [Ritonavir]	–	57.4

Further lines, the compound ahead of its results:

SMILES	IC50 cell viability ([1]; ICRF193 0 nM) [µM]	IC50 cell viability ([1]; ICRF193 200 nM) [µM]	efficacy ([2]; ICRF193 0 nM) [%]	efficacy ([2]; ICRF193 200 nM) [%]
O=C1NCCN1CCN1CCC(c2cn(-c3ccc(F)cc3)c3ccc(Cl)cc23)CC1 [Sertindole]	16.4	23.1	105	117
Cc1c(C(=O)NN2CCCCC2)nn(-c2ccc(Cl)cc2Cl)c1-c1ccc(Cl)cc1 [Rimonabant]	18.3	29.1	64.4	87.3
CCN1\C(=C/C=C/C=C/c2sc3ccccc3[n+]2CC)Sc2ccccc21 [Dithiazanine chloride]	23.1	20.6	96.7	99
CC[C@@H](C(=O)[C@@H](C)[C@@H](O)[C@H](C)[C@@H]1O[C@@H]([C@@H](CC)C(=O)O)CC[C@@H]1C)[C@H]1O[C@]2(C=C[C@@H](O)[C@]3(CC[C@@](C)([C@H]4CC[C@](O)(CC)[C@H](C)O4)O3)O2)[C@H](C)C[C@@H]1C [SALINOMYCIN, SODIUM]	2.31	1.3	104	100
O=C(c1ccc(F)c(F)c1Nc1ccc(I)cc1F)N1CC(O)([C@@H]2CCCCN2)C1 [Cobimetinib]	18.3	9.2	55.7	75.9
C/C(=C\c1csc(C)n1)[C@@H]1C[C@@H]2O[C@]2(C)CCC[C@H](C)[C@H](O)[C@@H](C)C(=O)C(C)(C)[C@@H](O)CC(=O)O1 [Epothilone B]	0.00517	0.0073	66	45.8
OCCN1CCN(CC/C=C2/c3ccccc3Sc3ccc(C(F)(F)F)cc32)CC1 [cis-Flupentixol]	25.9	16.4	119	102
O=C(Nc1ccc([N+](=O)[O-])cc1Cl)c1cc(Cl)ccc1O [Niclosamide]	0.712	0.712	88.5	82.8
CNCCC=C1c2ccccc2CCc2ccccc21 [Pamelor]	> 45.8	29.1	–	51.6
O=c1[nH]cc(F)c(=O)[nH]1 [Fluorouracil]	10.3	20.6	59.5	55.4
CC(=O)O[C@H]1C[C@H](O[C@H]2[C@@H](O)C[C@H](O[C@H]3[C@@H](O)C[C@H](O[C@H]4CC[C@@]5(C)[C@H](CC[C@@H]6[C@@H]5CC[C@]5(C)[C@@H](C7=CC(=O)OC7)CC[C@]65O)C4)O[C@@H]3C)O[C@@H]2C)O[C@H](C)[C@H]1O [Digitoxin 3'''-Acetate]	0.231	0.116	75	87.8
CC1=CC(=C(c2ccc(N)cc2)c2ccc(N)cc2)C=CC1=N [C.I. Basic Violet 14]	10.3	5.17	98.1	92.3
Oc1cccc(-c2c3nc(c(-c4cccc(O)c4)c4ccc([nH]4)c(-c4cccc(O)c4)c4nc(c(-c5cccc(O)c5)c5ccc2[nH]5)CC4)C=C3)c1 [Temoporfin]	> 45.8	25.9	–	46
Cc1cc(C2CCCCC2)n(O)c(=O)c1 [Ciclopirox]	11.6	13	107	98.9
CC[C@@]1(O)C(=O)OCc2c1cc1n(c2=O)Cc2c-1nc1cc(F)c(C)c3c1c2[C@@H](N)CC3 [Exatecan]	0.0259	0.0231	60	48.8
c1ccc2c(c1)Sc1ccccc1N2CC1CN2CCC1CC2 (stereo not given) [Mequitazine]	16.4	20.6	103	96.8
CO[C@H](C(=O)[C@@H](O)[C@@H](C)O)[C@@H]1Cc2cc3cc(O[C@H]4C[C@@H](O[C@@H]5C[C@@H](O)[C@H](O)[C@@H](C)O5)[C@H](O)[C@@H](C)O4)c(C)c(O)c3c(O)c2C(=O)[C@H]1O[C@H]1C[C@@H](O[C@@H]2C[C@@H](O)[C@@H](O[C@@H]3C[C@](C)(O)[C@H](O)[C@@H](C)O3)[C@@H](C)O2)[C@H](O)[C@@H](C)O1 [Plicamycin]	0.0651	0.058	82.3	83.7
[O-][n+]1ccccc1[S-].[O-][n+]1ccccc1[S-].[Zn+2] [Zinc pyrithione]	4.61	2.06	107	102
c1ccc(-c2ccc(C(c3ccccc3)n3ccnc3)cc2)cc1 (stereo not given) [Bifonazole]	25.9	16.4	75.7	75.2
CN1CCCC(n2nc(Cc3ccc(Cl)cc3)c3ccccc3c2=O)CC1 (stereo not given) [Azelastine hydrochloride]	> 45.8	29.1	–	65.4
C=CCOC(Cn1ccnc1)c1ccc(Cl)cc1Cl (stereo not given) [Imazalil sulfate]	> 45.8	29.1	–	44.8
C=C1C[C@@H]2CC[C@@]34C[C@H]5O[C@H]6[C@@H](O3)[C@H]3O[C@H](CC[C@@H]3O[C@H]6[C@H]5O4)CC(=O)C[C@@H]3[C@@H](OC)[C@@H](C[C@H](O)CN)O[C@H]3C[C@H]3O[C@@H](CC[C@@H]1O2)C[C@@H](C)C3=C [Eribulin mesylate]	0.0651	0.164	90.6	77.5
CC(=O)[C@H]1CC[C@H]2[C@@H]3C=CC4=CC(=O)CC[C@@]4(C)[C@@H]3CC[C@]12C [Dydrogesterone]	> 45.8	20.6	–	41.7
COc1ccc2cc1Oc1ccc(cc1)C[C@H]1c3c(cc4c(c3Oc3cc5c(cc3OC)CCN(C)[C@@H]5C2)OCO4)CCN1C [Cepharanthine]	> 45.8	4.61	–	41.2
CC(=O)N1CCN(c2ccc(OCC3COC(Cn4ccnc4)(c4ccc(Cl)cc4Cl)O3)cc2)CC1 (stereo not given) [Ketoconazole]	> 45.8	13	–	55.8
CN1CCc2cccc3c2[C@H]1Cc1ccc(O)c(O)c1-3 [Apomorphine]	20.6	29.1	116	107
